We go through one compound from patent US7148194B2, “Method to increase fibronectin” (Kimberly-Clark Worldwide, Inc., priority 2002, dated 2006).

The assay concerns normal human dermal fibroblasts. Nature of the assay: fibroblast proliferation, Cell Titer 96, OD 490 nm. Format: cell-based. Also on record: fibroblast cell density versus control: dose or concentration left out as unconfirmed. Conditions: 28 hours. Here is the method: A human skin fibroblast cell line (Clonetics, Walkersville, Md., normal human dermal fibroblasts, neonatal, catalog number CC-2509) was tested to ascertain whether exposure to a peptide would stimulate cellular proliferation. […] Plates were incubated for 24 hours at 37° C. in a humidified 5% CO2 atmosphere. After incubation, the medium was aspirated and the wells were rinsed twice with 100 μl of serum-free DMEM. […] In addition, 100 μl of vehicle (serum-free DMEM) was added to 10 wells as control. All wells were incubated for 28 hours at 37° C. in a humidified, 5% CO2 atmosphere. After incubation, 20 μl of Cell Titer 96 Aqueous One Solution was added to all wells. The plates were swirled gently and placed back in the incubator for 45 minutes and spectrophotometric absorbance was read at 490 nm. Results were analyzed statistically using one-way ANOVA.

As to `CC(C)[C@H](NC(=O)[C@H](CC(=O)O)NC(=O)[C@@H]1CCCN1C(=O)[C@H](CC(N)=O)NC(=O)CNC(=O)[C@H](CS)NC(=O)[C@H](CCCNC(=N)N)NC(=O)[C@@H]1CCCN1)C(=O)N[C@@H](C)C(=O)N[C@@H](CC(N)=O)C(=O)N[C@@H](Cc1ccc(O)cc1)C(=O)N[C@@H](CC(N)=O)C(=O)N[C@@H](Cc1ccccc1)C(=O)N[C@@H](Cc1ccccc1)C(=O)N1CCC[C@H]1C(=O)N[C@@H](CCCNC(=N)N)C(=O)N[C@@H](CCCCN)C(=O)N1CCC[C@H]1C(=O)N[C@@H](CCCCN)C(=O)O` [Peptide 19-mer], the “fibroblast cell growth versus control” value (1×10^−4 M, P<0.001) is “even greater cell growth”. Also, the “fibroblast cell proliferation versus control” value (1×10^−6 M, P<0.05) is “a small amount of cell proliferation”. Also, the “fibroblast cell density versus control” value ((19mer5), P<0.01) was “significantly greater cell density”.
